This is an account of results in patent US8207154B2, “Catatonic bacteriochlorophyll derivatives” (Yeda Research and Development Co., Ltd., priority 2005, dated 2012).

Where two headings read alike, the source gives them in different places.

In this test the test system is H5V cells. The experiment in a line: Phototoxicity assay (PDT efficacy at two incubation times), neutral red survival. The format is cell-based, mouse. To be noted: then 10 min illumination, 12 J/cm^2. On the procedure:
H5V cells (40×10^3/well) were cultured in 96-well plates for 24 h to ˜80% confluence. To determine phototoxicity, the culture medium was replaced with 100 μl/well medium, in the absence or presence of 10^−8 to 10^−6 M sensitizer, and incubated in the dark for 15 min or 3 h in the culture incubator. The plates (PDT group) were then placed in the light field at room temperature and illuminated from the bottom for 10 min (800>λ>650 nm, 12 J/cm^2). After illumination, the medium was changed to fresh culture medium. The cultures were then placed in the culture incubator and cell survival was determined 24 h later, using the neutral red survival assay described below.
Following 24 h post PDT the culture medium in the wells was replaced with 100 μl fresh medium containing 40 μg/ml neutral red. The plate was incubated for 1.5 h in a dark culture incubator. The medium was aspirated and the cells washed with 100 μl of solution containing 1% CaCl2 and 0.5% formaldehyde, which removes the unincorporated dye and fixes the cells to the substratum. The dye was then extracted from the cells into the supernatant upon addition of 100 μl 1% glacial acetic acid in 50% ethanol. After 1-2 min at room temperature, the optical density of the wells was determined in a microplate spectrophotometer using a 570 nm filter. After subtraction of assay blanks, net optical density was computed as the average value of triplicate determinations. Cell survival was calculated as the percent of the dye accumulated in the untreated control. To determine cell survival data was plotted against sensitizer concentration. These curves were then used to calculated LD50 values.
Following synthesis, the compounds described in the Examples 23 to 75 above were purified, divided into equal aliquots and lyophilized for storage (desiccated at −20° C.). The exact material content was determined by HPLC-diode array detection, and the PDT efficacy was evaluated at two incubation times as described in the experimental section.

Setting [1] is: 15 min incubation in the dark, read-out: IC50 15 min.
Setting [2] is: 3 h incubation in the dark, read-out: IC50 3 hours.

Take `CCC1c2cc3[n-]c(c(CC(=O)OC)c4nc(cc5[n-]c(cc(n2)C1C)c(C(C)=O)c5C)C(C)C4CCC(=O)NCCN1CCNCC1)c(C(=O)NCCN1CCNCC1)c3C.[Pd+2]` (stereo not drawn) [Compound 41, Palladium 3^1-oxo-15-methoxycarbonylmethyl-Rhodobacteriochlorin-13^1, 17^3-di(2-piperazino-N-ethyl)amide]: the IC50 (usually the midpoint of a concentration-inhibition curve) under setting [1] worked out at 1130 nM and the IC50 under setting [2] came out at 460 nM.

In the case of `CCC1c2cc3[n-]c(c(CC(=O)OC)c4nc(cc5[n-]c(cc(n2)C1C)c(C(C)=O)c5C)C(C)C4CCC(=O)NCCCNCCCN)c(C(=O)NCCCNCCCN)c3C.[Pd+2]` (stereo not drawn) [Compound 42, Palladium 3^1-oxo-15-methoxycarbonylmethyl-Rhodobacteriochlorin-13^1, 17^3-di-(3-[(3-aminopropyl)amino]propyl)amide], the IC50 was 680 nM under setting [1] and 280 nM under setting [2].

For the compound `CC[C@H]1C2=NC(=Cc3c(C(C)=O)c(C)c4[n]3[Pd][n]3c(c(C)c(C(=O)NCCN(CCN)CCN)c3=C(CC(=O)OC)C3=NC(=C4)[C@@H](C)[C@@H]3CCC(=O)NCCN(CCN)CCN)=C2)[C@@H]1C` [Compound 43, Palladium 3^1-oxo-15-methoxycarbonylmethyl-Rhodobacteriochlorin-13^1,17^3-di([2-bis(2-aminoethyl)amino]ethyl)amide], the IC50 amounted to 600 nM under setting [1] and 180 nM under setting [2].

Turning to `CCC1C2=Cc3c(C)c(C(=O)NCCNc4ccccn4)c4[n]3[Pd][n]3c(c(C)c(C(C)=O)c3=CC(=N2)C1C)=CC1=NC(=C4CC(=O)OC)C(CCC(=O)NCCNc2ccccn2)C1C` (stereo not drawn) [Compound 44, Palladium 3^1-oxo-15-methoxycarbonylmethyl-Rhodobacteriochlorin-13^1,17^3-di(2-N-(2′-pyridyl)aminoethyl)amide], the IC50 is, setting by setting: under setting [1], 1410 nM; under setting [2], 170 nM.

In the case of `CC[C@H]1C2=NC(=Cc3c(C(C)=O)c(C)c4[n]3[Pd][n]3c(c(C)c(C(=O)NCCN(CC)CC)c3=C(CC(=O)OC)C3=NC(=C4)[C@@H](C)[C@@H]3CCC(=O)NCCN(CC)CC)=C2)[C@@H]1C` [Compound 45, Palladium 3^1-oxo-15-methoxycarbonylmethyl-Rhodobacteriochlorin-13^1, 17^3-di(2-N^2-diethylaminoethyl)amide], the IC50 was 200 nM under setting [1] and 180 nM under setting [2].

In the case of `CC[C@H]1C2=NC(=Cc3c(C(C)=O)c(C)c4[n]3[Pd][n]3c(c(C)c(C(=O)NCC(O)CO)c3=C(CC(=O)OC)C3=NC(=C4)[C@@H](C)[C@@H]3CCC(=O)NCCN)=C2)[C@@H]1C` (stereo partly drawn) [Compound 47, Palladium 3^1-oxo-15-methoxycarbonylmethyl-Rhodobacteriochlorin-13^1-(2,3-dihydroxypropyl)amide-17^3-(2-aminoethyl) amide], the IC50 is 450 nM under setting [1] and 250 nM under setting [2].

Consider `CCC1C2=Cc3c(C)c(C(=O)NCCN)c4[n]3[Pd][n]3c(c(C)c(C(C)=O)c3=CC(=N2)C1C)=CC1=NC(=C4CC(=O)OC)C(CCC(=O)NCC(O)CO)C1C` (stereo not drawn) [Compound 48, Palladium 3^1-oxo-15-methoxycarbonylmethyl-Rhodobacteriochlorin-13^1-(2-aminoethyl)amide-17^3-(2,3-dihydroxypropyl) amide], for which the IC50 was 600 nM under setting [1] and 200 nM under setting [2].

Turning to `CC[C@H]1C2=NC(=Cc3c(C(C)=O)c(C)c4[n]3[Pd][n]3c(c(C)c(C(=O)NCC(O)CO)c3=C(CC(=O)OC)C3=NC(=C4)[C@@H](C)[C@@H]3CCC(=O)NCCN(C)C)=C2)[C@@H]1C` (stereo partly drawn) [Compound 49, Palladium 3^1-oxo-15-methoxycarbonylmethyl-Rhodobacteriochlorin-13^1-(2,3-dihydroxypropyl)amide-17^3-(2-N^2-dimethylaminoethyl)amide], the IC50 is, setting by setting: under setting [1], 1150 nM; under setting [2], 570 nM.

In the case of `CC[C@H]1C2=NC(=Cc3c(C(C)=O)c(C)c4[n]3[Pd][n]3c(c(C)c(C(=O)NCCN(C)C)c3=C(CC(=O)OC)C3=NC(=C4)[C@@H](C)[C@@H]3CCC(=O)NCC(O)CO)=C2)[C@@H]1C` (stereo partly drawn) [Compound 50, Palladium 3^1-oxo-15-methoxycarbonylmethyl-Rhodobacteriochlorin-13^1-(2-N^2-dimethylaminoethyl)amide-17^3-(2,3-dihydroxypropyl)amide], the IC50 reads like this: under setting [1], 470 nM; under setting [2], 170 nM.

For `CC[C@H]1C2=NC(=Cc3c(C(C)=O)c(C)c4[n]3[Pd][n]3c(c(C)c(C(=O)NCC(O)CO)c3=C(CC(=O)OC)C3=NC(=C4)[C@@H](C)[C@@H]3CCC(=O)NCCNCCN)=C2)[C@@H]1C` (stereo partly drawn) [Compound 51, Palladium 3^1-oxo-15-methoxycarbonylmethyl-Rhodobacteriochlorin-13^1-(2,3-dihydroxypropyl)amide-17^3-(2-[(2-aminoethyl)amino]ethyl)amide], the IC50 came out at 780 nM under setting [1] and 400 nM under setting [2].

With `CC[C@H]1C2=NC(=Cc3c(C(C)=O)c(C)c4[n]3[Pd][n]3c(c(C)c(C(=O)NCC(O)CO)c3=C(CC(=O)OC)C3=NC(=C4)[C@@H](C)[C@@H]3CCC(=O)NCCNCCN(CC)CC)=C2)[C@@H]1C` (stereo partly drawn) [Compound 52, Palladium 3^1-oxo-15-methoxycarbonylmethyl-Rhodobacteriochlorin-13^1-(2,3-dihydroxypropyl)amide-17^3-(2-[(2-N^2-diethylaminoethyl)amino]ethyl)amide], the concentration for half-maximal inhibition (IC50) reads like this: under setting [1], 830 nM; under setting [2], 890 nM.

For the compound `CC[C@H]1C2=NC(=Cc3c(C(C)=O)c(C)c4[n]3[Pd][n]3c(c(C)c(C(=O)NCC(O)CO)c3=C(CC(=O)OC)C3=NC(=C4)[C@@H](C)[C@@H]3CCC(=O)NCCN3CCOCC3)=C2)[C@@H]1C` (stereo partly drawn) [Compound 53, Palladium 3^1-oxo-15-methoxycarbonylmethyl-Rhodobacteriochlorin-13^1-(2,3-dihydroxypropyl)amide-17^3-(2-morpholino-N-ethyl)amide], the IC50 under setting [1] was found to be 2000 nM and the IC50 under setting [2] worked out at 900 nM.

As for `CC[C@H]1C2=NC(=Cc3c(C(C)=O)c(C)c4[n]3[Pd][n]3c(c(C)c(C(=O)NCC(O)CO)c3=C(CC(=O)OC)C3=NC(=C4)[C@@H](C)[C@@H]3CCC(=O)NCCN3CCNCC3)=C2)[C@@H]1C` (stereo partly drawn) [Compound 54, Palladium 3^1-oxo-15-methoxycarbonylmethyl-Rhodobacteriochlorin-13^1-(2,3-dihydroxypropyl)amide-17^3-(2-piperazino-N-ethyl)amide], the IC50 reads like this: under setting [1], 750 nM; under setting [2], 270 nM.

Take `CC[C@H]1C2=NC(=Cc3c(C(C)=O)c(C)c4[n]3[Pd][n]3c(c(C)c(C(=O)NCCNCCN)c3=C(CC(=O)OC)C3=NC(=C4)[C@@H](C)[C@@H]3CCC(=O)NCC(O)CO)=C2)[C@@H]1C` (stereo partly drawn) [Compound 55, Palladium 3^1-oxo-15-methoxycarbonylmethyl-Rhodobacteriochlorin-13^1-(2-[(2-aminoethyl)amino]ethyl)amide-17^3-(2,3-dihydroxypropyl)amide]: the IC50 was 1070 nM under setting [1] and 430 nM under setting [2].

For `CC[C@H]1C2=NC(=Cc3c(C(C)=O)c(C)c4[n]3[Pd][n]3c(c(C)c(C(=O)NCC(O)CO)c3=C(CC(=O)OC)C3=NC(=C4)[C@@H](C)[C@@H]3CCC(=O)NCCNc3ccccn3)=C2)[C@@H]1C` (stereo partly drawn) [Compound 56, Palladium 3^1-oxo-15-methoxycarbonylmethyl-Rhodobacteriochlorin-13^1-(2,3-dihydroxypropyl)amide-17^3-(2-N-(2′-pyridyl)aminoethyl)amide], the IC50 came out at 790 nM under setting [1] and 320 nM under setting [2].

Regarding `CCC1C2=Cc3c(C)c(C(=O)NCCNc4ccccn4)c4[n]3[Pd][n]3c(c(C)c(C(C)=O)c3=CC(=N2)C1C)=CC1=NC(=C4CC(=O)OC)C(CCC(=O)NCC(O)CO)C1C` (stereo not drawn) [Compound 57, Palladium 3^1-oxo-15-methoxycarbonylmethyl-Rhodobacteriochlorin-13^1-(2-N-(2′-pyridyl)aminoethyl)amide-17^3-(2,3-dihydroxypropyl)amide], the half-maximal inhibitory concentration (IC50) runs as follows: under setting [1], 1330 nM; under setting [2], 600 nM.

`CC[C@H]1C2=NC(=Cc3c(C(C)=O)c(C)c4[n]3[Pd][n]3c(c(C)c(C(=O)NCC(O)CO)c3=C(CC(=O)OC)C3=NC(=C4)[C@@H](C)[C@@H]3CCC(=O)NCCN(CCN)CCN)=C2)[C@@H]1C` (stereo partly drawn) [Compound 58, Palladium 3^1-oxo-15-methoxycarbonylmethyl-Rhodobacteriochlorin-13^1-(2,3-dihydroxypropyl)amide-17^3-([2-bis(2-aminoethyl)amino]ethyl)amide]: the IC50 runs as follows: under setting [1], 640 nM; under setting [2], 370 nM.

Regarding `CC(=O)O.CC(=O)O.CC(=O)O.CC[C@H]1C2=NC(=Cc3c(C(C)=O)c(C)c4[n]3[Pd][n]3c(c(C)c(C(=O)NCCN(CCN)CCN)c3=C(CC(=O)OC)C3=NC(=C4)[C@@H](C)[C@@H]3CCC(=O)NCC(O)CO)=C2)[C@@H]1C` (stereo partly drawn) [Compound 59, Palladium 3^1-oxo-15-methoxycarbonylmethyl-Rhodobacteriochlorin-13^1-([2-bis(2-aminoethyl)amine]ethyl)amide-17^3-(2,3-dihydroxypropyl)amide], the IC50 under setting [1] was 450 nM and the IC50 under setting [2] is 190 nM.
